From patent publication US20230346816A1, “COMPOUNDS AND METHODS FOR TREATING VIRAL INFECTION” (priority 2020, published 2023)

Experiments:
COX-2 = test: Gene expression analysis (quantitative PCR) of COX-2 in primary human chondrocytes; assay type: cell-based; conditions: IL-1β, 1 or 10 mM, 24 hrs, FIG. 4
Protocol: (§1) Normal cartilage were obtained from autopsy services at the hospital of University of Virginia, approved by the Institutional Review Board. Articular cartilage were harvested from the femoral condyles and the tibial plateaus. Cartilage shavings were harvested at the operation room and placed in tissue culture medium (DMEM, 10% FBS, penicillin, streptomycin), and shipped to the laboratory at 4° C. Chondrocytes were isolated by incubation of the cartilage fragments with 0.01% collagenase NB4 (Fisher Scientific, Catalog No. 50-204-1257) for 4 hrs at 37° C. Cells were maintained in continuous monolayer cultures in DMEM containing 10% FBS. Experiments were performed with cells less than 3 passages. When necessary, trypsin were used for cell passage.
(§2) Cells, as prepared in the MATERIALS section, were seeded in a 24-well plate (3×10^5/well) and incubated with culture medium overnight. Cells were then treated with Compound 2 at various concentrations in DMEM containing 2% FBS (1 or 10 mM) for 24 hrs. […] Synthesis of cDNA from total RNA and the quantitative PCR were carried out by using the iscript™ cDNA synthesis kit and the iQ™ SYBR Green Supermix kit (Bio-Rad Laboratories, Hercules, CA), respectively. […] The threshold cycle (CT) value were calculated from amplification plots. Data were analyzed using the 2-ΔΔCT method with 18s rRNA serving as the reference. […]

IL-6 = test: Gene expression analysis (quantitative PCR) of IL-6 in primary human chondrocytes; assay type: cell-based; conditions: IL-1β, 1 or 10 mM, 24 hrs, FIG. 3
Protocol: as §1, §2

COVID-19 = test: Prospective observational cohort study of NAG in hospitalized COVID-19 patients vs retrospective control arm; assay type: in vivo
[1] = NAG (n = 48) vs control (n = 100), univariate
[2] = multiple logistic regression, NAG (ref = control)

Structure (SMILES) | Expression of pro-inflammatory gene COX-2 (COX-2) | Expression of pro-inflammatory gene IL-6 (IL-6) | Intubation, % (COVID-19; 700 mg NAG every 12 hours plus standard of care, NAG group n = 48) | ICU admission, odds ratio (COVID-19; [1]) | Mortality, odds ratio (COVID-19; [1]) | Poor clinical outcome, odds ratio (COVID-19; [1]) | Intubation, odds ratio (COVID-19; NAG (n = 48) vs control (n = 100), univariate, Fisher's exact test) | Hospital LOS, Hodges-Lehmann difference (COVID-19; NAG (n = 48) vs control (n = 100), univariate, Mann-Whitney U test) | ICU admission, % (COVID-19; NAG group n = 48) | Poor clinical outcome (combined death/hospice initiation), % (COVID-19; NAG group n = 48) | Hospital LOS, median (COVID-19; NAG group n = 48, median (IQR) [range]) | Hospice initiation, % (COVID-19; excludes patients that died, NAG n = 42) | Hospice initiation, odds ratio (COVID-19; excludes patients that died, NAG n = 42 vs control n = 72, univariate) | ICU admission, odds ratio (multivariate) (COVID-19; [2]) | Poor clinical outcome rate, odds ratio (multivariate) (COVID-19; [2]) | Hospital length of stay, β-coefficient (COVID-19; multivariate linear regression, NAG (ref = control)) | ICU LOS, median (COVID-19; only patients admitted to the ICU, NAG n = 10) | ICU LOS, Hodges-Lehmann difference (COVID-19; only patients admitted to the ICU, NAG n = 10 vs control n = 36, univariate) | Duration of oxygen, Hodges-Lehmann difference (COVID-19; only patients that required oxygen support, NAG n = 46 vs control n = 86, univariate) | Difference between control and NAG groups for intubation rates, hospital LOS, ICU admission, ICU LOS, duration of oxygen use, or hospice initiation (COVID-19; univariate analysis)
CC(=O)N[C@H]1[C@H](O)O[C@H](C)C[C@@H]1O [Cpd 2, 2-(acetylamino)-2,4,6-trideoxy-β-D-glucopyranose] | dose-dependent inhibition | dose-dependent inhibition | – | – | – | – | – | – | – | – | – | – | – | – | – | – | – | – | – | –
CC(=O)N[C@@H]1[C@@H](O)[C@H](O)[C@@H](CO)O[C@H]1O [NAG, N-((2R,3R,4R,5S,6R)-2,4,5-trihydroxy-6-(hydroxymethyl)-tetrahydro-2H-pyran-3-yl)acetamide] | – | – | (16.7%) | 0.53 | 0.37 | 0.30 | 0.60 | 0.0 | (22.9%) | (12.5%) | 7 | (0%) | 0.00 | 0.32 | 0.30 | −4.27 | 2.5 | 4.0 | 0.0 days | no significant differences
